Laboratory results published in patent publication US12390440B2, “Immunomodulating trifluoromethyl-aminal azalides” (Zoetis Services LLC, priority 2020, dated 2025).
Values after ≈ are worked out from the molar mass of the structure shown. “Also recorded” adds a separate entry of the source.

Columns and labels:
S. aureus = assay: MIC, S. aureus; conditions: Staphylococcus aureus
NLRX1 = NLRX1 (Bos taurus, UniProt A7MB19); assay: Drug/protein binding partner, SPR: NLRX1; parameters: species or system bovine; conditions: PBMCs
Chain of NLRX1 (A7MB19 1-973): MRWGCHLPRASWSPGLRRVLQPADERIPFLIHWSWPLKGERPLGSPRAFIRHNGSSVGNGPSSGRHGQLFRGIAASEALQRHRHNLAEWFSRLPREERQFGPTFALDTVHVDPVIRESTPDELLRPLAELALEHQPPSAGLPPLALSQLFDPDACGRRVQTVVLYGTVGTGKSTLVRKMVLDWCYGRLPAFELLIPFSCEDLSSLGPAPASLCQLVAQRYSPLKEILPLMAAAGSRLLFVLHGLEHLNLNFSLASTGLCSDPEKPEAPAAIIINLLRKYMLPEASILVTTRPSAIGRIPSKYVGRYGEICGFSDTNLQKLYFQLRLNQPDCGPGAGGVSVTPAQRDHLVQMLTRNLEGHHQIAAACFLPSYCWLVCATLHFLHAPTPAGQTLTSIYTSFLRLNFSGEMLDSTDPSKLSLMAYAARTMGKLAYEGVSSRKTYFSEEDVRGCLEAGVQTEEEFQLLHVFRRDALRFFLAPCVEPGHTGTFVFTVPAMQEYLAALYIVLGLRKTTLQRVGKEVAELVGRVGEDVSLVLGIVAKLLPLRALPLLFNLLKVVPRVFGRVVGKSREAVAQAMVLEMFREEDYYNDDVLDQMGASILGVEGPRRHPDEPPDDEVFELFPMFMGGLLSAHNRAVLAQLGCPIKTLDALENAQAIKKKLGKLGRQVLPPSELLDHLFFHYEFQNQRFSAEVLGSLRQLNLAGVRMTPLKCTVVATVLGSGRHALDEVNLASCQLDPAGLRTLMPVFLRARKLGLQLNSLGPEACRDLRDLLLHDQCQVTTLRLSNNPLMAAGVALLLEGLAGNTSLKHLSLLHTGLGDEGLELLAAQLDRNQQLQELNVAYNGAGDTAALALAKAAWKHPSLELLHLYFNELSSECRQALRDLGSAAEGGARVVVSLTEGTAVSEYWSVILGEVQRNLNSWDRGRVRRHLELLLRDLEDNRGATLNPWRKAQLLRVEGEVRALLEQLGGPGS
Method: (§1) To further characterize the direct activity of the compounds of the invention, experiments to identify the drug's direct binding host partners(s) were performed with the aim of identifying the potential biological targets. Bovine primary cells (peripheral blood mononuclear cells [PBMCs] and polymorphonuclear cells [PMN/neutrophils]) and tissue (trachea, lung) protein homogenates were mixed with M9 and the macrolide, gamithromicin as a comparator. Tissue interactions were allowed to form using a heterogeneous assembly method (nematic protein organization technique, NPOT; Inoviem Scientific); and traditional western blots to identify native-structure proteins bound to the compound. Mass spectrometry analysis identified eight proteins involved in the interaction with M9 as compared to gamithromycin. The antibacterial macrolide gamithromycin was used as a comparator to differentiate specific binding to M9. These proteins were considered to be either direct binding partners of the drug or closely involved in the drug:target interaction (Table 6).
(§2) In order to add further clarity to binding partner identification, surface plasma resonance (SPR) technology was used. […]
(§3) KD is the equilibrium dissociation constant that was used to present the drug/target affinity. The identified targets associated with drug were measured by surface plasmon resonance (SPR) to define the KD.

[1] = tested on: bovine alveolar macrophages; assay: Phospholipidosis assay (HCS LipidTox); assay type: cell-based; conditions: Bos taurus, Macrophage
Source text: The second immunomodulation in vitro assay evaluated the potential for phospholipidosis with the compounds of the invention in bovine alveolar macrophages. The phospholipidosis assay is being used as a convenient method for the evaluation of cellular uptake. This assay utilized Invitrogen's commercially available HCS LipidTox detection kit with an Incucyte real time fluorescence reader to observe variations in EC50 and phospholipidosis profiles based on compound concentrations (Table 2). […] Murine intraperitoneal macrophages were also used in the same assay to evaluate species variability for potential correlation with mouse efficacy results. The combination of the bovine whole blood assay and phospholipidosis assays enabled rank ordering for progression into in vivo testing in the murine challenge model.

[2] = tested on: bovine respiratory disease (BRD); assay: Natural bovine respiratory disease study; assay type: in vivo, beef calves; conditions: 14-day observation, dosed on arrival to feedlot
Method: The primary clinical endpoint for efficacy was treatment failure/success over a 14-day observation period. Clinically normal beef calves (150-200 kg) at moderate risk for BRD were dosed on arrival to the feedlot. Animals (N=114/group) received saline (T01), 5 mg/kg M9 (T02) or 10 mg/kg M9 (T03); or Zactran (T04). […] Bacterial isolates were collected at necropsy and MICs were evaluated (Table 4).

TLR4 = molecular target: T1, TLR4 (Bos taurus, UniProt Q9GL65); assay: Drug/protein binding partner, SPR: TLR4; parameters: species or system bovine; conditions: PBMCs, Trachea
T1 sequence (Q9GL65 24-841): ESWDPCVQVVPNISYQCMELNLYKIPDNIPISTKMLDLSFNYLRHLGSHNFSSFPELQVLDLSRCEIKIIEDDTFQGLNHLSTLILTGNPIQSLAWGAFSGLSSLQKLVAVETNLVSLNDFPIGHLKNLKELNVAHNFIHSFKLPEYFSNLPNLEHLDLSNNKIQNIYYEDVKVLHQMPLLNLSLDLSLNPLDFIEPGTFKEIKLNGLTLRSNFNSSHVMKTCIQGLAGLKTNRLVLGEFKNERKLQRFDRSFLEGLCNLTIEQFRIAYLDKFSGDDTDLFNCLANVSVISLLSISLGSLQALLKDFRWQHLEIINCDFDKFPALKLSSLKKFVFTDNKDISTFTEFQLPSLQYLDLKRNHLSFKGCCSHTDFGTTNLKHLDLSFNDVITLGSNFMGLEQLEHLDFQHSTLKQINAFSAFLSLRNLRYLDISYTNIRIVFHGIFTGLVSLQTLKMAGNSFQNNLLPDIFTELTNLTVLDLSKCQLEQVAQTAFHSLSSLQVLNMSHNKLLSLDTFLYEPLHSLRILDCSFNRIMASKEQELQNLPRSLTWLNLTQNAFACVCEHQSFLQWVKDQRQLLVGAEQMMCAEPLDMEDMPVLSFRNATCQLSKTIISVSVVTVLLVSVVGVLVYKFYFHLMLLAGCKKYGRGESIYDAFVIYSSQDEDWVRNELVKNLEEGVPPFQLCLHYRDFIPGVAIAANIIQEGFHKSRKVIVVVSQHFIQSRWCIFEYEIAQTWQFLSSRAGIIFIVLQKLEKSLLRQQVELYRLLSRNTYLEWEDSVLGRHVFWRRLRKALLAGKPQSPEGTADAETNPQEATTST
Method: as §1, §2, §3

[3] = tested on: M. haemolytica (strain: OSU-012103-BHI); assay: Bovine M. haemolytica intratracheal lung challenge model

With `CCCNC[C@]1(O)[C@H](C)O[C@@H](O[C@H]2[C@H](C)[C@@H](O[C@@H]3O[C@H](C)C[C@H](NC)[C@H]3O)[C@](C)(O)C[C@@H](C)CN[C@H](C)[C@@H](O)[C@](C)(O)[C@@H](CC)OC(=O)[C@@H]2C)C[C@@]1(C)OC` [Example M9, (2R,3S,4R,5R,8R,10R,11R,12S,13S,14R)-2-ethyl-3,4,10-trihydroxy-13-(((2R,4R,5S,6S)-5-hydroxy-4-methoxy-4,6-dimethyl-5-((propylamino)methyl)-tetrahydro-2H-pyran-2-yl)oxy)-11-(((2S,3R,4S,6R)-3-hydroxy-6-methyl-4-(methylamino)tetrahydro-2H-pyran-2-yl)oxy)-3,5,8,10,12,14-hexamethyl-1-oxa-6-azacyclopentadecan-15-one] the MIC (S. aureus) was 64 µg/mL (≈ 80.8 µM), the “Interaction KD” value (NLRX1) was “Indirect” and the EC50 [1] was 53.7 µM. For the same molecule, the Percent failure ([2]; 5 mg/kg (T02)) was 19.3%, the Percent failure ([2]; 10 mg/kg (T03)) was 8.8% and the “Interaction KD” value (TLR4) was “Indirect”. For the same molecule, the Mortality ([3]; T02: 10 mg/kg subcutaneous Day −1, M. haemolytica challenge Day 0) was 1/6, the Mortality ([3]; T04: 10 mg/kg subcutaneous Day −1, no challenge) was 0/6 and the IL-6 levels ([3]; bovine M. haemolytica challenge) was “significantly reduced”. For the same molecule, the CD163 expression ([3]; cattle, monocytes/macrophages in whole blood) was “suppressed; also recorded: mitigates the pathologic increase”.
